Source: patent US20110237644A1, “UBIQUITIN SPECIFIC PROTEASES RESPONSIBLE FOR MCL-1 STABILITY AND USES THEREOF” (Les Laboratoires Servier, priority 2008, published 2011)

Legend:
[1] = tested on: HeLa cells; assay: Flow cytometry, subG1-phase cells (apoptosis); format: cell-based, human; conditions: ABT-737 (3 μM) in Luc siRNA-treated HeLa cells
Method: FIG. 13: Flow cytometry of HeLa cancer cell transfected with luc, mcl-1, USP46v1, USP46v4 or USP46 pool siRNA. Cell cycle was determined 72 h after siRNA transfection and 18 h after ABT-737 treatment (3 μM).
FIG. 14: ABT-737-induced subG1 transition in HeLa cells determined 72 h after siRNA transfection and 24 h after ABT-737 treatment. The percentage of cells in the subG1 (<2N) are means+/−SD of duplicate values (A). Mcl-1 endogenous level was also determined in the presence of siRNA targeting either luciferase, Mcl-1 or USP46. Anti-Stat3 antibody was used as loading control (B).
All cell lines used were maintained in their respective medium. All culture media were supplemented with 100 units/ml penicillin and 0.1 mg/ml streptomycin, and cell lines were incubated at 37° C. in a humidified atmosphere containing 5% CO2. For siRNA transfection, siRNA (40 pmol, 72 nM final) were complexed with 2 μl of Oligofectamine (Invitrogen) in Opti-MEM (Invitrogen) and added to 24-well plates prior to cell seeding. In all conditions, Opti-MEM was replaced with appropriate medium 5 hours after transfection. […]
To confirm the effect of USP46 siRNA on the sensitization of cells to ABT-737-induced apoptosis in HeLa cells, the number of subG1-phase cells is quantified which reflect mainly apoptosis. […]

[2] = molecular target: Mcl-1 (Homo sapiens, UniProt Q07820); conditions: cited from earlier work
Mcl-1, sequence (Q07820 whole entry, species assumed): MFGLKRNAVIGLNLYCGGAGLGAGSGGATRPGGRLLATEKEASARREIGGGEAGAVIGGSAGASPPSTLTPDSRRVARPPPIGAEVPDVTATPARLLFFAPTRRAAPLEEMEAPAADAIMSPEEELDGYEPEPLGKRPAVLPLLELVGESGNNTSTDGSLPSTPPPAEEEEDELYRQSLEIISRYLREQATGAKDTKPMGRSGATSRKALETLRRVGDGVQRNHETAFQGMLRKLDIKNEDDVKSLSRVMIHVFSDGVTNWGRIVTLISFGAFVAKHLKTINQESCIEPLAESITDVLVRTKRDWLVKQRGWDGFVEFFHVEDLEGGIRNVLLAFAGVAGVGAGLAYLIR

[3] = molecular target: T1, A1 (Homo sapiens, UniProt Q16548); conditions: cited from earlier work
T1 sequence (Q16548 1-175): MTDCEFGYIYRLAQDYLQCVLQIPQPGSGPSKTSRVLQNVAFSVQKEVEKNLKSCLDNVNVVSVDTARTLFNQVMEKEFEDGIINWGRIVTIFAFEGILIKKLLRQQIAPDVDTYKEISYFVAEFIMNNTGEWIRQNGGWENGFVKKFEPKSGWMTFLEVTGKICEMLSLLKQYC

[4] = tested on: Mcl-1 in HCT116 cells; assay: USP siRNA screening on Mcl-1 half-life with cycloheximide, Western blot; format: cell-based, human; conditions: confirmation experiment
Method: FIG. 1 (FIGS. 1.1, 1.2, 1.3): Schematic representation of Mcl-1 modulation following USP silencing at t=0, 30 min or 1 h of cycloheximide treatment in HCT116 cells. Mcl-1 increase and decrease are respectively presented in blue and green and siRNA toxicity is presented in grey. Absence of color corresponds to absence of any effect. Selected USP for confirmation experiments are highlighted in green (USP5, USP13, USP19, USP21, USP22, USP26, USP28, USP38, USP42 and USP46). SiRNA designed to target pairs of USP are indicated on the right of the table.
For the screening, the indicated amounts of siRNA (40 pmol, 72 nM final) were complexed with 2 μl of Oligofectamine (Invitrogen) in Opti-MEM (Invitrogen) and added to 24-well plates prior to cell seeding. 150 000 HCT116 cells were next plated. Opti-MEM was replaced with appropriate medium 5 hours after transfection. After 72 h of transfection and before harvesting, cells were treated or not with cycloheximide (30 μg/ml) for 30 min or 1 hour or treated with MG132 (30 μM) for 90 min.
Cells were washed once in chilled PBS and harvested by trypsination. Floating and trypsinized cells were pooled and collected by centrifugation. […] Proteins were quantitated using bicinchoninic acid (Sigma-Aldrich) according to manufacturer's instructions. […] Signal was detected using ECL reagent (Amersham) following manufacturer's instructions. […]

**Q.** With CN(C)CC[C@H](CSc1ccccc1)Nc1ccc(S(=O)(=O)NC(=O)c2ccc(N3CCN(Cc4ccccc4-c4ccc(Cl)cc4)CC3)cc2)cc1[N+](=O)[O-] [ABT-737] as the compound, how does the subG1 cells [1] read?
**A.** 35%±6.6%

**Q.** And the “affinity for Mcl-1” value [2]?
**A.** low affinity

**Q.** What about the “affinity for A1” value [3] of the same compound?
**A.** low affinity

**Q.** With C[C@@H]1C[C@@H]([C@H](O)CC2CC(=O)NC(=O)C2)C(=O)[C@@H](C)C1 [cycloheximide] as the compound, how does the “endogenous Mcl-1 level” value [4] read?
**A.** significant decrease
